Test results: patent EP4806894A1, “TNAP INHIBITORY COMPOUND AND USE THEREOF” (Rednvia Co., Ltd., priority 2023, dated 2025)

Experiments:
TNAP = target: T1, TNAP (Homo sapiens, UniProt P05186); experiment: TNAP inhibitory activity, colorimetric assay (alkaline phosphatase assay kit ab83369, pNPP substrate); assay type: biochemical; conditions: TNAP enzyme, 2 hours at room temperature, absorbance 405 nm
T1 sequence (P05186 18-502 limits assumed): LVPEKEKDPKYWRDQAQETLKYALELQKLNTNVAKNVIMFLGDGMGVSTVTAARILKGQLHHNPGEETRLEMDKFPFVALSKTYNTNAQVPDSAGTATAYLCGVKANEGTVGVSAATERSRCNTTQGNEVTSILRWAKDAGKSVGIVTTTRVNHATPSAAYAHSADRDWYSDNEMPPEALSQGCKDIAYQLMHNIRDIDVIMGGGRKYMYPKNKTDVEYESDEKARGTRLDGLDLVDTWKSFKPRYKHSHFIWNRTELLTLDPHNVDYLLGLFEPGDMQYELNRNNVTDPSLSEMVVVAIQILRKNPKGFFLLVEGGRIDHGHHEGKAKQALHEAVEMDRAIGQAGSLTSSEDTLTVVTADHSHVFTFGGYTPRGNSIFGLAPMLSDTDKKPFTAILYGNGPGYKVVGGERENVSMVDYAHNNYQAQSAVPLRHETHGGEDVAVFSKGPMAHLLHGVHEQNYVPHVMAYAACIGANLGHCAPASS

saos-2 cells = experiment: Anticalcification efficacy in saos-2 cells (osteogenic medium, Alizarin Red staining); assay type: cell-based; conditions: test compound 1 µM, 7 days osteogenic medium, Alizarin Red absorbance 540 nm
Procedure, shortened: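 Saos-2 cells at 80–90% confluence induced for 7 days in osteogenic medium (DMEM, 100 nM dexamethasone, 10 mM β-glycerophosphate, 0.05 mM ascorbic acid), compound (0.5, 1, 5, 10 […]) added with each medium change. Alizarin Red staining eluted with cetylpyridinium chloride, A540 read; inhibition taken against OM-only absorbance.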

C57BL/6 mouse [1] = experiment: Warfarin-induced calcification mouse animal model (aortic valve histopathology); assay type: in vivo; conditions: for blackened area (von Kossa staining, increased calcification): Figure 1, versus warfarin and vitamin K1-induced calcification group (B); for Number of inflammatory cells (cells/mm^2): aortic valve area; for Number of inflammatory cells (cells/mm^2) / Mean thickness (µm): HE staining; for Number of inflammatory cells (cells/mm^2) / Mean thickness (µm) / Calcified area (%/mm^2): warfarin and vitamin K1 for 4 weeks, C57BL/6 mouse; for Mean thickness (µm) / Calcified area (%/mm^2): aortic valve; for Calcified area (%/mm^2): von Kossa staining
Experimental: • 1. Animal: C57BL/6 mouse (OrientBio, Sungnam-city, Korea) • Gender: male • Age on arrival: C57BL/6 (6 weeks) • Raising: Animals were raised in filter cap polycarbonate cages, 5 animals each, in a temperature (25°C) and humidity (45-55%) controlled sterile clean room. The light:dark cycle was 12 hours:12 hours, and sterilized food and water were provided with free access. • Guidelines: All animals were treated in accordance with the Daegu Haany University Institutional Animal Care and Use Committee (Gyeongsan, Korea). • 2. General experimental methods: In vivo drug administration
After acclimating the mice for one week, they were divided into each group and tested.
After acclimation for one week, the groups were randomized.
The mice were divided into four groups: a group that received no treatment (A), a group that was treated with warfarin and vitamin K1 to induce calcification (B), a group that was administered orally with 0.5% CMC (carboxymethyl Cellulose) (C), and a group that was administered with the test compound. The compounds of Example 1 (K) and Example 6 (L) were selected as the test compound.
All groups, except the untreated control group (Normal), were administered both warfarin and vitamin K1 at 8:00 AM and warfarin alone at 8:00 PM for 4 weeks.
Heart tissue samples were obtained from each group and used for analysis.
(§1) Individual heart samples were cut crosswise, one section at a time, around the origin/root region of the ascending aorta. Histological sections were then prepared from all the samples received. All cross-sectioned cardiac-aortic valve sections were refixed in 10% neutral buffered formalin for 24 hours to prepare histological samples. After the samples were embedded in paraffin, two serial sections of 3 to 4 µm thickness were prepared on each paraffin block and stained with hematoxylin & eosin (HE) for general histopathology or von Kossa (VK) for calcium deposition, respectively. To observe more detailed changes, a computer-assisted image analysis program and a histological camera system were used to calculate the mean aortic valve thickness (µm) and the number of inflammatory cells infiltrating the aortic valve area (cells/mm^2) in HE staining, and the mean calcified aortic valve area (%/mm^2) in VK staining in this histopathological analysis.

C57BL/6 mouse [2] = experiment: Vitamin D-induced calcification mouse animal model (aortic valve histopathology); assay type: in vivo; conditions: for blackened area (von Kossa staining, increased calcification): Figure 2, versus high-dose vitamin D3-induced calcification group (B); for Number of inflammatory cells (cells/mm^2): aortic valve area; for Number of inflammatory cells (cells/mm^2) / Mean thickness (µm): HE staining; for Number of inflammatory cells (cells/mm^2) / Mean thickness (µm) / Calcified area (%/mm^2): vitamin D3 6.5x10^5 IU/Kg s.c. for 3 days, compound orally once a day for 8 days, mouse; for Mean thickness (µm) / Calcified area (%/mm^2): aortic valve; for Calcified area (%/mm^2): von Kossa staining
Experimental: as §1
Experimental animals were prepared similarly to Experimental Example 3. Excluding the normal group, four groups were administered with high-dose (6.5x10^5 IU/Kg) vitamin D3 subcutaneously once a day for a total of 3 days to induce calcification. The compounds of Examples 1 and 6 were administered orally together from the first day of vitamin D3 administration, and then administered once a day for 5 more days without vitamin D3 administration, for a total of 8 days.
Samples were obtained and analyzed in the same manner as in Experimental Example 3.

Row | Compound | IC50 (TNAP) [nM] | calcification inhibition (saos-2 cells) | blackened area (von Kossa staining, increased calcification) (C57BL/6 mouse [1]) | Number of inflammatory cells (cells/mm^2) (C57BL/6 mouse [1]) | Mean thickness (µm) (C57BL/6 mouse [1]) | Calcified area (%/mm^2) (C57BL/6 mouse [1]) | blackened area (von Kossa staining, increased calcification) (C57BL/6 mouse [2]) | Number of inflammatory cells (cells/mm^2) (C57BL/6 mouse [2]) | Mean thickness (µm) (C57BL/6 mouse [2]) | Calcified area (%/mm^2) (C57BL/6 mouse [2]) | inhibition at 1 µM (saos-2 cells; Homo sapiens, 168 h, read-out: calcification inhibition) [%]
1 | 5-chloro-2-methoxy-N-(5-oxo-6,7-dihydro-5H-pyrrolo[3,4-b]pyridine-3-yl)benzenesulfonamide [Example 1] | 10 to 100 | A (inhibition of 50% or more was expressed as "A") | significantly reduced | 144.40±43.12 | 112.42±10.81 | 2.45±0.64 | significantly reduced | 110.89±21.64 | 64.26±12.34 | 7.95±1.16 | 
2 | COc1ccc(Cl)cc1S(=O)(=O)Nc1cnc2c(c1)C(=O)NCC2 [Example 6, 5-chloro-2-methoxy-N-(5-oxo-5,6,7,8-tetrahydro-1,6-naphthyridine-3-yl)benzenesulfonamide] | ≤ 10 |  | significantly reduced | 80.40±14.90 | 91.69±15.70 | 1.16±0.30 | significantly reduced | 58.89±17.32 | 51.76±10.39 | 2.44±0.92 | ≥ 50
